Assay results as given in US11999727B2 (Tango Therapeutics, Inc., priority 2020, dated 2024).

Assays:
PRMT5 [1] = biological target: T1, PRMT5 (Homo sapiens, UniProt O14744); assay: PRMT5 biochemical IC50 assay with SAM as cofactor; settings: PRMT5, SAM as cofactor; read-out: SAM IC50
T1 construct: purchased Viva (custom protein)

PRMT5 [2] = biological target: T1, PRMT5; assay: PRMT5 biochemical IC50 assay with no cofactor; settings: PRMT5, no cofactor; read-out: No Cofactor/rel IC50
Description: Table 1 indicates IC50 values (μM) against PRMT5 for exemplary compounds in the presence of SAM as cofactor, with no cofactor, and with MTA as cofactor, respectively (columns 4-6). […] Ki values can be calculated from the IC50 values as described in the Examples section. As detailed in the Examples section, for the assay performed in the presence of SAM, IC50=Ki×1.5 (Ki=IC50/1.5).

PRMT5 [3] = biological target: T1, PRMT5; assay: PRMT5 biochemical IC50 assay with MTA as cofactor; settings: PRMT5, MTA as cofactor; read-out: MTA IC50
[4] = test system: HAP1 MTAP-intact cell line; assay: SDMA in-cell western assay, HAP1 MTAP-intact; format: cell-based; settings: Homo sapiens, HAP1, SDMA in-cell western, HAP1 MTAP-intact; read-out: MTAP HAP1 intact IC50
Summary of the method: (§1)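 Readout: in-cell western detection of SDMA. Cells: HAP1 expressing endogenous MTAP and an MTAP-null HAP1 counterpart. Output: IC50.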

[5] = test system: HAP1 MTAP-deleted cell line; assay: SDMA in-cell western assay, HAP1 MTAP-deleted; format: cell-based; settings: for IC50: Homo sapiens, HAP1, SDMA in-cell western, HAP1 MTAP-deleted, read-out: HAP 1 MTAP deleted IC50; for MTAP intact/deleted ratio: IC50 ratio HAP1 MTAP-intact / HAP1 MTAP-deleted, SDMA in-cell western
Summary of the method: as §1

[6] = test system: HAP1 MTAP-deleted cell line; assay: Viability assay, MTAP-deleted cell line; format: cell-based; settings: Homo sapiens, HAP1, viability IC50, MTAP-deleted cell line; read-out: HAP1 MTAP deleted viability
Description: Table 1 additionally indicates IC50 values in a viability assay for the MTAP-deleted cell line (column 10), indicating the effect of treatment with compound on cell survival.

T1 sequence (O14744 whole entry): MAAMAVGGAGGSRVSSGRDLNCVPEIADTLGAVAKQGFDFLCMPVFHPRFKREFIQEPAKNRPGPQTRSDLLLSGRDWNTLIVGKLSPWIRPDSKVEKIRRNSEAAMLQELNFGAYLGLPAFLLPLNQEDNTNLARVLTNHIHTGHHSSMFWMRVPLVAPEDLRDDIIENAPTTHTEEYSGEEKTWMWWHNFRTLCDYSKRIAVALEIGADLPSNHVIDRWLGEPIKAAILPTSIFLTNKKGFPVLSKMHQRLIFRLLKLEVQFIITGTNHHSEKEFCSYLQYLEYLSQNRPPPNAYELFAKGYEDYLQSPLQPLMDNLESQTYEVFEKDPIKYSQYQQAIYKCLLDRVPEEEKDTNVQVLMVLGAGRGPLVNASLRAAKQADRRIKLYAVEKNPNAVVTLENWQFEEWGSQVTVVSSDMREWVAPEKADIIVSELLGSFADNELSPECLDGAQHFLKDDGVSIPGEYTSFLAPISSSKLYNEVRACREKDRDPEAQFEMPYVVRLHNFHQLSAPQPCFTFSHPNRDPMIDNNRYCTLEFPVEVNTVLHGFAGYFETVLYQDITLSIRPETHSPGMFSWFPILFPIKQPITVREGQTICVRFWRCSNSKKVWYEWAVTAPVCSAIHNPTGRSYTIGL
T1 sequence (Q9BQA1 whole entry partner): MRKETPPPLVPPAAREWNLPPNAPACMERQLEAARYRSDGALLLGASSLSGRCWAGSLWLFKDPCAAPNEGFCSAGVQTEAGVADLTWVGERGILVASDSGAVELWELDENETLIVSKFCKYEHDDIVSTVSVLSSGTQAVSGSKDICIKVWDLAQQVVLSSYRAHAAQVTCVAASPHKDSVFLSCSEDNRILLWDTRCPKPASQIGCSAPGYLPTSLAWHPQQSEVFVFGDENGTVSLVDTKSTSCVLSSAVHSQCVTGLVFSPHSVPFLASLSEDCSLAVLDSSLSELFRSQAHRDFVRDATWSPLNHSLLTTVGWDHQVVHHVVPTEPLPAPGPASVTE

SMILES: CNS(=O)(=O)c1ccc([C@@H]2CC[C@@H](C)CN2C(=O)C(=O)Nc2cnc(N)c(C)c2)cc1 (racemic) [Compound 668, N-(6-amino-5-methyl-3-pyridyl)-2-[(2S,5R)-5-methyl-2-[4-(methylsulfamoyl)phenyl]-1-piperidyl]-2-oxo-acetamide]
- IC50 (PRMT5 [1]): 50 to 500 nM
- IC50 (PRMT5 [2]): 50 to 500 nM
- IC50 (PRMT5 [3]): < 50 nM
- IC50 [4]: 100 to 1000 nM
- IC50 [5]: 100 to 1000 nM
- MTAP intact/deleted ratio [5]: B (an IC50 ratio greater than or equal to 3 fold but lower than 10 fold)
- IC50 [6]: 1000 to 10000 nM

SMILES: NC(=O)c1cncc(NC(=O)C(=O)N2C[C@H](c3cc[nH]n3)CC[C@H]2c2ccccc2)c1 (racemic) [Compound 669, rac-5-(2-oxo-2-((2R,5S)-2-phenyl-5-(1H-pyrazol-5-yl)piperidin-1-yl)acetamido)nicotinamide]
- IC50 (PRMT5 [1]): > 500 nM
- IC50 (PRMT5 [2]): > 500 nM
- IC50 (PRMT5 [3]): 50 to 500 nM
- IC50 [4]: > 1000 nM
- IC50 [5]: > 1000 nM
- MTAP intact/deleted ratio [5]: C (an IC50 ratio of less than 3 fold)
- IC50 [6]: > 10000 nM

SMILES: C[C@@H]1CC[C@@H](c2ccc3[nH]c(=O)ccc3c2)N(C(=O)C(=O)Nc2cncc(C(N)=O)c2)C1 (racemic) [Compound 670, rac-5-(2-((2R,5S)-5-Methyl-2-(2-oxo-1,2-dihydroquinolin-6-yl)piperidin-1-yl)-2-oxoacetamido)nicotinamide]
- IC50 (PRMT5 [1]): 50 to 500 nM
- IC50 (PRMT5 [2]): 50 to 500 nM
- IC50 (PRMT5 [3]): < 50 nM
- IC50 [4]: > 1000 nM
- IC50 [5]: 100 to 1000 nM
- MTAP intact/deleted ratio [5]: A (an IC50 ratio greater than or equal to 10 fold)
- IC50 [6]: 1000 to 10000 nM

SMILES: Cc1cc(NC(=O)C(=O)N2C[C@H](C)CC[C@H]2c2ccc3[nH]c(=O)ccc3c2)cnc1N (racemic) [Compound 671, rac-N-(6-Amino-5-methyl-3-pyridyl)-2-[5-methyl-2-(2-oxo-1H-quinolin-6-yl)-1-piperidyl]-2-oxo-acetamide]
- IC50 (PRMT5 [1]): 50 to 500 nM
- IC50 (PRMT5 [2]): 50 to 500 nM
- IC50 (PRMT5 [3]): < 50 nM
- IC50 [4]: 100 to 1000 nM
- IC50 [5]: < 100 nM
- MTAP intact/deleted ratio [5]: B (an IC50 ratio greater than or equal to 3 fold but lower than 10 fold)
- IC50 [6]: < 1000 nM

SMILES: Cc1cc(NC(=O)C(=O)N2C[C@H](C)CC[C@H]2c2ccc(C(C)(C)O)cc2)cnc1N (racemic) [Compound 672, N-(6-amino-5-methyl-3-pyridyl)-2-[(2R,5S)-2-[4-(1-hydroxy-1-methyl-ethyl)phenyl]-5-methyl-1-piperidyl]-2-oxo-acetamide]
- IC50 (PRMT5 [1]): 50 to 500 nM
- IC50 (PRMT5 [2]): 50 to 500 nM
- IC50 (PRMT5 [3]): 50 to 500 nM
- IC50 [4]: > 1000 nM
- IC50 [5]: 100 to 1000 nM
- MTAP intact/deleted ratio [5]: B (an IC50 ratio greater than or equal to 3 fold but lower than 10 fold)
- IC50 [6]: 1000 to 10000 nM

SMILES: Cc1cc(NC(=O)C(=O)N2C[C@H](C)CC[C@H]2c2cnc3scnc3c2)cnc1N (racemic) [Compound 685, N-(6-amino-5-methyl-3-pyridyl)-2-[(2S,5R)-5-methyl-2-thiazolo[5,4-b]pyridin-6-yl-1-piperidyl]-2-oxo-acetamide]
- IC50 (PRMT5 [1]): > 500 nM
- IC50 (PRMT5 [2]): 50 to 500 nM
- IC50 (PRMT5 [3]): 50 to 500 nM
- IC50 [4]: > 1000 nM
- IC50 [5]: 100 to 1000 nM
- MTAP intact/deleted ratio [5]: A (an IC50 ratio greater than or equal to 10 fold)
- IC50 [6]: > 10000 nM

SMILES: Cc1cc(NC(=O)C(=O)N2C[C@H](C)CC[C@H]2c2cccc(S(N)(=O)=O)c2)cnc1N (racemic) [Compound 688, N-(6-amino-5-methyl-3-pyridyl)-2-[(2S,5R)-5-methyl-2-(3-sulfamoylphenyl)-1-piperidyl]-2-oxo-acetamide]
- IC50 (PRMT5 [1]): 50 to 500 nM
- IC50 (PRMT5 [2]): 50 to 500 nM
- IC50 (PRMT5 [3]): < 50 nM
- IC50 [4]: > 1000 nM
- IC50 [5]: 100 to 1000 nM
- MTAP intact/deleted ratio [5]: A (an IC50 ratio greater than or equal to 10 fold)
- IC50 [6]: 1000 to 10000 nM
